According to patent EP4644383A1 (Jiangsu Yahong Meditech Co., Ltd., priority 2022, dated 2024):
Like-named read-outs stand apart in the source and are kept apart here.

Assays:
Assay type in all cases: biochemical
FGFR2 = molecular target: T1, FGFR2 (Homo sapiens, UniProt P21802); assay: FGFR2 kinase activity inhibition assay (LanthaScreen TR-FRET)
T1 construct: FGFR2's cytoplasmic domain [399-821 (terminal) amino acids]; purchased Carna 08-134
Experimental: (§1) FGFR1 kinase activity was measured using Invitrogen LanthaScreen™ assay technology, which utilized fluorescently-labeled peptides and terbium-labeled antibodies to directly measure an amount of the phosphorylated substrate through time-resolved fluorescence energy transfer (TR-FRET). • ① The test compounds were diluted: starting from a concentration of 1 µM, with a buffer solution in a three-fold serial dilution, the buffer solution being composed of 50 mM HEPES, 10 mM MgCl2, 0.01% TritonX-100, 0.01% BSA, 4 mM DTT (pH 7.5), and 1% DMSO; • ② 0.01 nM recombinant human GST fusion protein FGFR1's cytoplasmic domain [398-822 (terminal) amino acids] (Carna: 08-133) was formulated into a 2 × solution, mixed well with the test compounds, and incubated at 23°C for 10 minutes; • ③ 28 nM Fluorescein-Poly GT peptide substrate (Life Technologies: PV3611) and 28 µM ATP were formulated into a 2 × solution, mixed well with the test compounds and enzyme in ②, and incubated at 23°C for 30 minutes; • ④ 10 µL of 2nM Tb-PY20 antibody (Life Technologies: PV3552) and 10 mM EDTA were added to quench the kinase reaction, and incubated at 22°C for 60 minutes. • ⑤ The reaction was measured using a PerkinElmer EnVision multimode plate reader through TR-FRET dual wavelength detection. • 1. The RFU values were copied from the Envision program. • 2. The ratio of RFU 520nm/RFU 495nm was calculated. • 3. The value of the ratio was converted to a percentage inhibition value. % Inhibition = (max-data)/(max-min) × 100 [formula]
(§2) "Min" represents the ratio of the control without enzyme, "max" represents the ratio of the DMSO control, and "data" represents the ratio of the compounds in wells with different concentrations.
(§3) "Top" refers to the maximum response, "Bottom" refers to the minimum response, and "HillSlope" refers to the slope of the curve.
According to the same method as that in the FGFR1 kinase activity inhibition assay, the inhibitory activities against FGFR2, FGFR3 and FGFR4 were tested using FGFR2's cytoplasmic domain [399-821 (terminal) amino acids] (Carna: 08-134), FGFR3's cytoplasmic domain [436-806 (terminal) amino acids] (Carna: 08-135) and FGFR4's cytoplasmic domain [460-802 (terminal) amino acids] (Carna: 08-136), respectively. […]

FGFR4 = molecular target: T2, FGFR4 (Homo sapiens, UniProt P22455); assay: FGFR4 kinase activity inhibition assay (LanthaScreen TR-FRET)
T2 construct: FGFR4's cytoplasmic domain [460-802 (terminal) amino acids]; purchased Carna 08-136
T2 sequence (P22455 460-802): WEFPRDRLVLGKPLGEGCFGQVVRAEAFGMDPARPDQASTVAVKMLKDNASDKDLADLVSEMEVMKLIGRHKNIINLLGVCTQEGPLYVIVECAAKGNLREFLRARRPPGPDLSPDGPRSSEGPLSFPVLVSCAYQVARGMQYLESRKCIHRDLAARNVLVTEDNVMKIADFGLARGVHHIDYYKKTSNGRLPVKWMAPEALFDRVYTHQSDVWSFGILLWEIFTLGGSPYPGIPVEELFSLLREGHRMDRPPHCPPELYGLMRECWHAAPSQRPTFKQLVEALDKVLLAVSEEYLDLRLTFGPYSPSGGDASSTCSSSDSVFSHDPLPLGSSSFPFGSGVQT
Experimental: as §1, §2, §3
According to the same method as that in the FGFR1 kinase activity inhibition assay, the inhibitory activities against FGFR2, FGFR3 and FGFR4 were tested using FGFR2's cytoplasmic domain [399-821 (terminal) amino acids] (Carna: 08-134), FGFR3's cytoplasmic domain [436-806 (terminal) amino acids] (Carna: 08-135) and FGFR4's cytoplasmic domain [460-802 (terminal) amino acids] (Carna: 08-136), respectively. Table 1 reports the kinase activity inhibition results and selectivity towards FGFR3 of each compound.

FGFR1 = molecular target: T3, FGFR1 (Homo sapiens, UniProt P11362); assay: FGFR1 kinase activity inhibition assay (LanthaScreen TR-FRET)
T3 construct: cytoplasmic domain [398-822 (terminal) amino acids]; purchased Carna 08-133
T3 sequence (P11362 398-822): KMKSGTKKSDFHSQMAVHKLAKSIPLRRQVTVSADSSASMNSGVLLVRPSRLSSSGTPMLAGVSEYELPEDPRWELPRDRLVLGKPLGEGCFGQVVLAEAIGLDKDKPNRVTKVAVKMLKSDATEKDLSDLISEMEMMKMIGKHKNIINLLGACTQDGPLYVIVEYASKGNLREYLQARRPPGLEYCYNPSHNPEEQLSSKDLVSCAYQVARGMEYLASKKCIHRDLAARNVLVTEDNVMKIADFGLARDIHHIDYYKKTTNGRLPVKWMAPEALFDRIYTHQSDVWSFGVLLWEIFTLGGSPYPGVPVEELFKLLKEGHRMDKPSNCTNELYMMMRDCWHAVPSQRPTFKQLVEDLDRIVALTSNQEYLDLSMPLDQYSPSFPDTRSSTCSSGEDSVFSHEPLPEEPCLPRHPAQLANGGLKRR
Procedure, shortened: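 Emission ratio 520 nm/495 nm by TR-FRET after stopping reaction with 10 mM EDTA and 60 min incubation at 22°C. Inhibition normalized between no-enzyme (min) and DMSO (max) controls, then fitted to a four-parameter curve (Top, Bottom, HillSlope).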

FGFR3 = molecular target: T4, FGFR3 (Homo sapiens, UniProt P22607); assay: FGFR3 kinase activity inhibition assay (LanthaScreen TR-FRET); settings: for Selectivity (X) FGFR1/FGFR3: ratio of IC50 FGFR1/FGFR3, selectivity towards FGFR3; for Selectivity (X) FGFR2/FGFR3: ratio of IC50 FGFR2/FGFR3, selectivity towards FGFR3; for Selectivity (X) FGFR4/FGFR3: ratio of IC50 FGFR4/FGFR3, selectivity towards FGFR3
T4 construct: FGFR3's cytoplasmic domain [436-806 (terminal) amino acids]; purchased Carna 08-135
T4 sequence (P22607 436-806): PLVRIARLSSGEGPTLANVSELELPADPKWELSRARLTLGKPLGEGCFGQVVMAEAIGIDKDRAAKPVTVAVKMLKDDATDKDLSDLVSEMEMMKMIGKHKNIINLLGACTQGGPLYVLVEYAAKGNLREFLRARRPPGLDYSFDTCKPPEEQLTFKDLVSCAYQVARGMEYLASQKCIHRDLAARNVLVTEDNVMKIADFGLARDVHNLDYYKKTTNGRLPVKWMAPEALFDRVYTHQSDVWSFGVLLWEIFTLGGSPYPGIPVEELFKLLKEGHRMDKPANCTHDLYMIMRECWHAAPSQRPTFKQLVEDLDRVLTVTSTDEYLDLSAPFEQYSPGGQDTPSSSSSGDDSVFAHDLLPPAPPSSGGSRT
Procedure, shortened: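 Read-out is TR-FRET, with the 520 nm/495 nm emission ratio normalised to DMSO (max) and enzyme-free (min) controls. Enzyme was the FGFR3 cytoplasmic domain, residues 436-806. EDTA (10 mM) stopped the reaction, followed by 60 min at 22 °C before reading.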

[1] = FGFR2 kinase, TR-FRET, read-out: IC50 (nM) FGFR2
[2] = FGFR4 kinase, TR-FRET, read-out: IC50 (nM) FGFR4
[3] = FGFR1 kinase, TR-FRET, read-out: IC50 (nM) FGFR1
[4] = FGFR3 kinase, TR-FRET, read-out: IC50 (nM) FGFR3

T1 sequence (P21802 399-821): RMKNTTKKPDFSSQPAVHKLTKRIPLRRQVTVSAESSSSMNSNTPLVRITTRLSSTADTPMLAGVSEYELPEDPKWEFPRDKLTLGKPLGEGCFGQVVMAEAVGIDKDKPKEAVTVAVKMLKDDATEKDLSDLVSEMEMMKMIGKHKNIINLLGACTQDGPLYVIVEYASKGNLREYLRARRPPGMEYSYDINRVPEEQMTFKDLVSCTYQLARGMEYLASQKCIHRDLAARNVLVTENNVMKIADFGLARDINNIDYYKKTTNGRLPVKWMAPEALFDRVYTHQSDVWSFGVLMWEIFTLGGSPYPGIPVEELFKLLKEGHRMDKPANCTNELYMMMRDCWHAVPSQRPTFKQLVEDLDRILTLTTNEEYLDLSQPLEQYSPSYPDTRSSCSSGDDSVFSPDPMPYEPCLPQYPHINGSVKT

SMILES	IC50 (FGFR2; [1]) [nM]	IC50 (FGFR4; [2]) [nM]	IC50 (FGFR1; [3]) [nM]	IC50 (FGFR3; [4]) [nM]	Selectivity (X) FGFR1/FGFR3 (FGFR3)	Selectivity (X) FGFR2/FGFR3 (FGFR3)	Selectivity (X) FGFR4/FGFR3 (FGFR3)	IC50 (FGFR2) [nM]	IC50 (FGFR4) [nM]	IC50 (FGFR1) [nM]	IC50 (FGFR3) [nM]
C[C@@H](Oc1cc(F)c2[nH]nc(-c3cnn(CCN4CCS(=O)(=O)CC4)c3)c2c1)c1c(Cl)cncc1Cl [Example 24, (R)-4-(2-(4-(5-(1-(3,5-dichloropyridin-4-yl)ethoxy)-7-fluoro-1H-indazol-3-yl)-1H-pyrazol-1-yl)ethyl)thiomo rpholine 1,1-dioxide]	1 to 10	10 to 100	10 to 100	< 1	A (A represents 1 ≤ multiple X<20)	A (A represents 1 ≤ multiple X<20)	C (C represents 50 ≤ multiple X<100)				
Cc1cc(O[C@H](C)c2c(Cl)cncc2Cl)cc2c(-c3cnn(CCN4CCOCC4)c3)n[nH]c12 [Example 27, (R)-4-(2-(4-(5-(1-(3,5-dichloropyridin-4-yl)ethoxy)-7-methyl-1H-indazol-3-yl)-1H-pyrazol-1-yl)ethyl)morpholine]	10 to 100	> 100	> 100	1 to 10	B (B represents 20 ≤ multiple X<50)	A (A represents 1 ≤ multiple X<20)	C (C represents 50 ≤ multiple X<100)				
C[C@@H](Oc1ccc2[nH]nc(-c3cnn(Cc4cccnc4)c3)c2n1)c1c(Cl)cncc1Cl [Example 28, (R)-5-(1-(3,5-dichloropyridin-4-yl)ethoxy)-3-(1-(pyridin-3-ylmethyl)-1H-pyrazol-4-yl)-1H-pyrazolo[4,3-b]pyridine]					A (A represents 1 ≤ multiple X<20)	A (A represents 1 ≤ multiple X<20)	A (A represents 1 ≤ multiple X<20)	< 1	1 to 10	1 to 10	< 1
C[C@@H](Oc1ccc2[nH]nc(-c3cnn(CCN4CCOCC4)c3)c2n1)c1c(Cl)cncc1Cl [Example 31, (R)-4-(2-(4-(5-(1-(3,5-dichloropyridin-4-yl)ethoxy)-1H-pyrazolo[4,3-b]pyridin-3-yl)-1H-pyrazol-1-yl)ethyl)morpholine]					B (B represents 20 ≤ multiple X<50)	A (A represents 1 ≤ multiple X<20)	B (B represents 20 ≤ multiple X<50)	< 1	10 to 100	1 to 10	< 1
C[C@@H](Oc1ccc2[nH]nc(-c3cnn(C4CCN(C(=O)CO)C4)c3)c2n1)c1c(Cl)cncc1Cl (stereo partly drawn) [Example 59, 1-(3-(4-(5-((R)-1-(3,5-dichloropyridin-4-yl)ethoxy)-1H-pyrazolo[4,3-b]pyridin-3-yl)-1H-pyrazol-1-yl)pyrrolidin-1-yl)-2-hydroxyethan-1-one]	< 1	10 to 100	1 to 10	< 1	A (A represents 1 ≤ multiple X<20)	A (A represents 1 ≤ multiple X<20)	B (B represents 20 ≤ multiple X<50)				
C[C@@H](Oc1ccc2[nH]nc(-c3cnn(CCn4ccnc4)c3)c2n1)c1c(Cl)cncc1Cl [Example 60, (R)-3-(1-(2-(1H-imidazol-1-yl)ethyl)-1H-pyrazol-4-yl)-5-(1-(3,5-dichloropyridin-4-yl)ethoxy)-1H-pyrazolo[4,3-b]pyridine]	1 to 10	10 to 100	10 to 100	1 to 10	A (A represents 1 ≤ multiple X<20)	A (A represents 1 ≤ multiple X<20)	B (B represents 20 ≤ multiple X<50)				
CC(Oc1ccc2[nH]nc(-c3cnn(C)c3)c2c1)c1cccc2ncc(Cl)cc12 (stereo not drawn) [Example 94, 3-chloro-5-(1-((3-(1-methyl-1H-pyrazol-4-yl)-1H-indazol-5-yl)oxy)ethyl)quin oline]					C (C represents 50 ≤ multiple X<100)	A (A represents 1 ≤ multiple X<20)	B (B represents 20 ≤ multiple X<50)	10 to 100	> 100	> 100	10 to 100

The next lines start with results.

IC50 (FGFR2; [1]) [nM]	IC50 (FGFR4; [2]) [nM]	IC50 (FGFR1; [3]) [nM]	IC50 (FGFR3; [4]) [nM]	Selectivity (X) FGFR1/FGFR3 (FGFR3)	Selectivity (X) FGFR2/FGFR3 (FGFR3)	Selectivity (X) FGFR4/FGFR3 (FGFR3)	SMILES	IC50 (FGFR2) [nM]	IC50 (FGFR4) [nM]	IC50 (FGFR1) [nM]	IC50 (FGFR3) [nM]
1 to 10	10 to 100	10 to 100	1 to 10	A (A represents 1 ≤ multiple X<20)	A (A represents 1 ≤ multiple X<20)	B (B represents 20 ≤ multiple X<50)	C[C@@H](Oc1ccc2[nH]nc(-c3cnn(CCc4cccnc4)c3)c2n1)c1c(Cl)cncc1Cl [Example 61, (R)-5-(1-(3,5-dichloropyridin-4-yl)ethoxy)-3-(1-(2-(pyridin-3-yl)ethyl)-1H-pyrazol-4-yl)-1H-pyrazolo[4,3-b]pyridine]				
1 to 10	10 to 100	1 to 10	< 1	A (A represents 1 ≤ multiple X<20)	A (A represents 1 ≤ multiple X<20)	D (D represents 100 ≤ multiple X)	C[C@@H](Oc1ccc2[nH]nc(-c3cnn(CCN4CCC5(CCNC5=O)CC4)c3)c2n1)c1c(Cl)cncc1Cl [Example 62, (R)-8-(2-(4-(5-(1-(3,5-dichloropyridin-4-yl)ethoxy)-1H-pyrazolo[4,3-b]pyridin-3-yl)-1H-pyrazol-1-yl)ethyl)-2,8-diazaspiro[4.5]dec an-1-one]				
> 100	> 100	> 100	10 to 100	C (C represents 50 ≤ multiple X<100)	B (B represents 20 ≤ multiple X<50)	D (D represents 100 ≤ multiple X)	CNCCNC(=O)c1ccc2[nH]nc(-c3cn(C)nn3)c2c1 [Example 74, 3-(1-methyl-1H-1,2,3-triazol-4-yl)-N-(2-(methylamino)ethyl)-1H-indazole-5-carboxamide]				
> 100	> 100	> 100	10 to 100	D (D represents 100 ≤ multiple X)	D (D represents 100 ≤ multiple X)	D (D represents 100 ≤ multiple X)	Cc1c[nH]c(-c2n[nH]c3ccc(C(=O)NCCN(C)C)cc23)n1 [Example 80, N-(2-(dimethylamino)ethyl)-3-(4-methyl-1H-imidazol-2-yl)-1H-indazole-5-carboxamide]				
10 to 100	> 100	> 100	1 to 10	B (B represents 20 ≤ multiple X<50)	A (A represents 1 ≤ multiple X<20)	B (B represents 20 ≤ multiple X<50)	CC(C)c1ccc2ncccc2c1C(C)Oc1ccc2[nH]nc(-c3cnn(C)c3)c2c1 (stereo not drawn) [Example 107, 6-isopropyl-5-(1-((3-(1-methyl-1H-pyrazol-4-yl)-1H-indazol-5-yl)oxy)ethyl)qu inoline]				
